Experimental data reported in patent publication US7521065B2, “Compositions for the treatment and prevention of cancer” (priority 2001, dated 2009).

What was measured:
[1] = tested on: normal embryonic liver or lung cells; details: added to the growth media; cited from earlier work
[2] = tested on: lesion diagnosed as precancerous; assay: Impregnated adhesive bandage on precancerous lesion, case report Example IV; assay type: in vivo, human; details: adhesive bandage impregnated with compound; person
From the text: A person developed a lesion diagnosed as precancerous on the upper part of their back.

[3] = tested on: metastatic cutaneous and subcutaneous lesions and affected lymph nodes (breast cancer); assay: Topical treatment of breast cancer metastases, case report Example VI; assay type: in vivo, human
From the text: In May 1998 a tumor was diagnosed in the left breast of a […] which had been treated for cancer of the right breast in 1974 by mastectomy, axillar resection, chemotherapy with cytoxan, metothrexate and 5-fluorouracil, and ovariectomy. In May 1999 they presented with numerous skin metastases on their upper torso and lymph node involvement. The patient underwent various therapies in Europe, which included chemotherapy, immunotherapy and hyperthermia, but numerous metastatic cutaneous and subcutaneous metastatic lesions remained on their chest, in the mastectomy scar, in the left axilla and on their back. […] As a precaution they are applying a lotion containing 0.2% solution of di-n-hexyl diselenide in jojoba oil onto areas of their skin once every two weeks.

[4] = tested on: skin lesion with all characteristics of a superficially spreading melanoma; assay: Topical treatment of a skin lesion, case report Example I; assay type: in vivo, human; details: 10% solution in n-decane, twice a day for 3 days, person, lesion 0.8 cm
From the text: A subject presented with a skin lesion of 0.8 cm diameter on their right upper chest.

[5] = tested on: irregular melanotic spot on right hand; assay: Topical treatment of a melanotic spot, case report Example II; assay type: in vivo, human; details: 10% solution in 1:1 n-decane/n-dodecane, once every day for one week, person
From the text: A subject presented with a small irregular melanotic spot of approximately 3 mm diameter on their right hand which the subject had since birth but which in recent years had increased in size and became unsymmetrical. […] New skin growing over the lesion closed it without a scar.

small lump on breast = assay: Cream applied onto breasts, case report Example V; assay type: in vivo, human; details: 0.2% in moisturizing cream, once a week; person
From the text: A person with a small lump on their breast was told that they were at risk of developing breast cancer. They applied onto their breasts once a week a cream containing 0.2% di-n-hexyl diselenide in a moisturizing cream of conventional composition. […] They presently continue to apply the selenium composition once a week as a precautionary measure.

[6] = tested on: high nuclear grade intraductal carcinoma of the right breast; assay: Topical treatment of breast carcinoma, case report Example VII; assay type: in vivo, human
From the text: A person was diagnosed in July 1999 with a high nuclear grade intraductal carcinoma of the right breast. The tumor consisted of a hard mass in the lower left quadrant of the right breast of 3 cm diameter. In November 1999, a 6% di n-hexyl diselenide in a 1:1 mixture of n-decane and jojoba oil was applied onto the affected breast once per day. […] Status Jan. […] Status April 2001: Unchanged.

[7] = tested on: inoperable cancer of the rectum; assay: Suppository treatment of rectal cancer, case report Example VIII; assay type: in vivo, human; details: suppositories containing 2% in cocoa butter, daily for 4 weeks
Procedure: A person was diagnosed with inoperable cancer of the rectum in 1998 and was offered radiation therapy, which they refused. A colostomy was performed in the fall of 1998. They applied suppositories containing 2% di-n-hexyl diselenide in cocoa butter daily into their rectum for a period of 4 weeks.

[8] = From the text: The therapeutic efficacy of the dialkyl diselenides of these compositions depends on (1) the length of the alkyl residue R, and (2) the composition of the inert carrier as these determine the degree to which they can penetrate through the skin. […] Increasing the average alkyl chain length beyond n-hexyl causes them to become less skin penetrating and more suitable for the treatment of superficial cancerous lesions. Shortening the chain length below n-hexyl increases the volatility of these compounds. This reduces their therapeutic efficacy as it causes them to evaporate when brought onto the skin.
Selection of the appropriate alkyl residues R in these compounds is important as it determines their ability to penetrate the skin. Preferred are dialkyl diselenides with linear, medium-length straight alkyl residues of at least 6 and not exceeding 8 carbon atoms.

[9] = tested on: squamous carcinoma on nose; assay: Topical cream treatment of squamous carcinoma, case report Example III; assay type: in vivo, human; details: cream containing 6%, twice per day for 5 days; person
[10] = tested on: several human cancer cell lines; details: cell cultures; cited from earlier work

In the case of `O=[Se](O)O` [sodium selenite], the “effect on normal cells” value [1] is given as “without affecting”.
With `CCCCCCCC[Se][Se]CCCCCCCC` [di-n-octyl diselenide] the “outcome of precancerous lesion” value [2] was “caused the lesion to dry out and drop off without a scar within 3 weeks”.
For `CCCCCC[SeH]` [n-hexyl selenol], the “outcome of recurrences on chest and metastases on back” value ([3]; 10% solution in n-decane) was “effectively controlled” and the “follow-up after treatment of recurrences” value ([3]; after 10% solution in n-decane) was “remained free of obvious signs of cancer for one year”.
For `CCCCCC[Se][Se]CCCCCC` [di-n-hexyl diselenide], the “outcome of skin lesion” value [4] was “caused a layer of dead cells to be formed which dropped off after 4 days without leaving a scar”, the “outcome of melanotic spot” value [5] was “caused the affected skin to turn brittle and to fall off” and the “outcome of breast lump” value (small lump on breast) was “lump in their breast disappeared over a period of two months”. For the same molecule, the “outcome of metastatic lesions and affected lymph nodes” value ([3]; 5% in n-decane) was “caused their disappearance within two weeks”, the follow-up after treatment ([3]; after 5% in n-decane) was “remained free of cancer for two years” and the “outcome of breast mass” value ([6]; 6% in 1:1 n-decane/jojoba oil, once per day, breast mass 3 cm diameter) was “Over a period of 4 weeks the breast mass shrunk and ultimately disappeared”. For the same molecule, the “status by ultrasonic examination” value ([6]; Status Jan. 8, 2000, unchanged April 2001) was “No breast mass detectable”, the “patient status during the following 2 years” value [7] was “their status has remained stable, they gained weight, and was able to work” and the “tumor mass by X-ray and sonographic examinations” value [7] was “the tumor mass had ceased to grow”. For the same molecule, the skin penetration properties [8] was “excellent skin penetration properties”.
In the case of `CCCCCCC[Se][Se]CCCCCCC` [di-n-heptyl diselenide], the “outcome of squamous carcinoma lesion” value [9] is listed as “disappearance of the lesion” and the “growth of cancer cell lines” value [10] is listed as “inhibit the growth”.
